Measurements as given in US10478482B2, “Vaccines for prevention and treatment of tuberculosis” (ALARUM DEVELOPMENT LTD, priority 2011, dated 2019).

How the values were obtained:
[1] = system: serum from patients with TB; assay: Antibody recognition of peptides by serum from patients with TB; assay type: binding, human; settings: for Average int. / N. of slide (frequency of recognition): serum from the group TB; for N. of slide (frequency of recognition): out of 9 individuals
Description: (§1) Serum was obtained from patients with sarcoidosis (FIG. 4A) and from patients with TB (FIG. 4B). The number indicate the frequency of recognition, e.g. 1/9 individuals up to 9/9 individuals. The listed peptides are only listed if they are present in one group (sarcoidosis versus tuberculosis) and if the peptide is never recognized in any serum from the respective control group. […] Strong IgG response requires strong T-cell help which lends support that these antigens are also recognized by T-cells.

[2] = system: serum from patients with sarcoidosis; assay: Antibody recognition of peptides by serum from patients with sarcoidosis; assay type: binding, human; settings: for Average int. / N. of slide (frequency of recognition): serum from the group sarcoidosis; for N. of slide (frequency of recognition): out of 9 individuals
Description: as §1

[3] = system: IFNγ production in freshly harvested Heparin-blood; assay type: cell-based, human
[4] = system: peritoneal macrophages; assay: Cytokine induction in peritoneal macrophages; assay type: cell-based, mouse; settings: FIG. 10
[5] = system: PBMCs; assay type: cell-based, monkey

Substance	Average int. [1]	N. of slide (frequency of recognition) [1]	Average int. [2]	N. of slide (frequency of recognition) [2]	further results
AAGNNVTVFGYSQSA [CAE55427-PPE family protein_289]	0.4545	6	–	–	–
APALMDVEAAYEQMW [CAE55281-PPE family protein_133]	–	–	1.6787	9	–
AWVSRGAHKLVGALE [CAB10951-cytotoxin haemolysin homologue TLYA_61]	0.7175	7	–	–	–
GGGNTGSGNIGNGNK [CAE55613-PPE family protein_193]	–	–	1.2266	9	–
GLYQVVPGIYQVRGF [CAA18084-possible hydrolase_85]	0.5432	8	–	–	–
GSSAMILAAYHPQQF [CAB10044-secreted antigen 85-B FBPB (85B)A_169]	–	–	0.6077	9	–
LSGDNQQGFNFAGGW [CAE55276-PPE family protein_1117]	–	–	1.6435	9	–
MTAPVWLASPPEVHS [CAE55538-PPE family protein_1]	0.8461	8	–	–	–
NANFGGGNGSAFHGQ [CAE55320-PPE family protein_205]	–	–	1.4131	9	–
NTGSYNMGDFNPGSS [CAE55416-PPE family protein_385]	0.9479	7	–	–	–
Possible glycosyltransferase [CAB05419/Rv2957]	–	–	–	–	antigen-specific T-cell responses (IFNγ) [3]: can be detected; recognition by serum from the group sarcoidosis (in words) [2]: never; recognition by serum from the group TB (in words) [1]: most frequently recognized; induction of IL-10 [4]: little induction; induction of IL-12 [4]: Strong induction; induction of TGF-β [4]: Strong induction; induction of TN-Fa [4]: little induction; intracellular cytokines, here represented by IL-2 [5]: Detection of intracellular cytokines
QWILHMAKLSAAMAK [CAA17973-conserved hypothetical alanine and_193]	0.4333	6	–	–	–
SSGKPGRDPEAGRYG [CAB02482-probable lipase lipe_385]	–	–	1.3190	9	–
TRLGIRLVIVLVRRW [CAB05419-possible glycosyl transferase_241]	0.9264	9	–	–	–
VIGGIGPIHVQPIDI [CAE55585-PPE family protein_865]	–	–	0.7433	9	–
